Where “and” joins values, the source holds several entries; their conditions need not be identical. Identical values can stand only once. Like-named read-outs stand apart in the source and are kept apart here.
Key:
[1] = tested on: perforin-dependent cytotoxicity of KHYG-1 NK cells on K562 target cells; assay: KHYG-1 cytotoxicity assay (51Cr-labeled K562 target cells); assay type: cell-based; settings: Homo sapiens
Experimental: (Table 1). […] An IC90 was used rather than an IC50 as we anticipated that elevated suppression of perforin activity is likely required to preserve the transplanted bone marrow stem cells in vivo.
The inhibition of the cytotoxic activity of KHYG-1 NK cells on K562 target cells was determined as described previously.[14] Briefly, compounds were added to KHYG-1 cells at 6–7 concentrations ranging from 20 μM to 312.5 nM in 2-fold dilutions in RPMI medium (Thermo Fisher Scientific, Waltham, MA) supplemented with 0.1% bovine serum albumin (BSA; Sigma-Aldrich, St. Louis, MO) for 20 min. ^51Cr-labeled K562 leukemia target cells were added to KHYG-1 cells at an effector/target ratio of 2:1 and incubated at 37 °C for 4 h. ^51Cr release was assayed using a Harvesting Press (Skatron Instruments, Lier, Norway), and radioactivity was estimated on a Wallac Wizard 1470 Automatic γ counter (Turku, Finland). The IC90 values were calculated by fitting a four-parameter logistic sigmoidal dose–response curve to the data using Prism version 8 (GraphPad, San Diego, CA). Each IC90 value represents the mean of at least three independent experiments, where six to seven concentrations were tested in triplicate for each compound.

[2] = molecular target: T1, perforin (Mus musculus, UniProt P10820); assay: In vivo perforin inhibition (allogeneic bone marrow transfer assay)
T1 construct: endogenous in cells; host or cells: recipient cytotoxic lymphocytes (NK/CTL) of wild-type C57BL/6 mice, in vivo
T1 sequence (P10820 21-554): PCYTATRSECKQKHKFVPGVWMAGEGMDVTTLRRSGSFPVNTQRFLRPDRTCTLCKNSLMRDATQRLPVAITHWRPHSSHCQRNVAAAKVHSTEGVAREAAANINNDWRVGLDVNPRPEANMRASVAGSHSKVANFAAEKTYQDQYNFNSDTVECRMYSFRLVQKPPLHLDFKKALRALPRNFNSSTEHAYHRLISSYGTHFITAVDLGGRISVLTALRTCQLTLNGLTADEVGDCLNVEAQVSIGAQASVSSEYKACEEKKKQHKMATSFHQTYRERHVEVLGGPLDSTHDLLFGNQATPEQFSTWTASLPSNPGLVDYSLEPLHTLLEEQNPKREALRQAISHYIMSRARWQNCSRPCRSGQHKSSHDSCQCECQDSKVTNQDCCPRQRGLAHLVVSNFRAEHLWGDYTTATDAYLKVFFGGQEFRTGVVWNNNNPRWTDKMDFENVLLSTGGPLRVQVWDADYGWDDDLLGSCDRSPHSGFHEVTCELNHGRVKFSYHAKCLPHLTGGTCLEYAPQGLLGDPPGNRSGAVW
Experimental: This model was selected as a surrogate assay for graft rejection during allogeneic bone marrow/stem cell transplantation to enable rapid testing of perforin inhibition in vivo. Mice were transplanted with a mixture of equal numbers of allogeneic immunologically mismatched and syngeneic immunologically matched bone marrow. […] Allogeneic cell survival in spleen and peripheral blood was determined 24 h after transplant, using C57BL/6 perforin-deficient mice (100% perforin inhibition) and untreated C57BL/6 mice (0% perforin inhibition) as controls.
Compounds were tested for in vivo efficacy as described previously.[14] Age- (8–12 weeks) and sex-matched wild-type (H-2D^b, CD45.2^+) or perforin-deficient C57BL/6 mice (C57BL/6-Prf1^tm1Sdz/J; H-2D^b, CD45.2^+) received 12 ×10^6 bone marrow cells from both allogeneic BALB/c (H-2D^d) MHC-mismatched and syngeneic C57BL/6 (H-2D^b) MHC-matched mice (24 × 10^6 cells total). The wild-type recipient mice were treated with perforin inhibitor compounds by intraperitoneal injection in 20% hydroxypropyl-β-cyclodextrin vehicle (10 mL/kg), or with vehicle alone; perforin-deficient mice remained untreated. The mice were euthanized 24 h after bone marrow transfer for peripheral blood mononuclear cell (PBMC) and spleen collection.
Throughout the study, we utilized two strategies to distinguish between recipient, donor allogeneic, and donor syngeneic cells based on either fluorescent labeling prior to transplant or congenic marker expression (CD45.1/CD45.2). In the fluorescent dye approach, allogeneic wild-type BALB/c (H-2D^d, CD45.2^+) bone marrow was labeled with 1 μM carboxyfluorescein succinimidyl ester (CFSE) prior to mixing with syngeneic bone marrow from C57BL/6 congenic mice (CD45.1^+). Twenty-four hours after cell transfer, the harvested cells were stained with anti-CD45.1-phycoerythrin and anti-TER119-allophycocyanin monoclonal antibodies (BioLegend, San Diego, CA). TER119 was used for erythroid exclusion prior to the identification of allogeneic (CFSE^+) and syngeneic (CD45.1^+) donor cells. Using a second purely congenic marker approach, allogeneic BALB/c congenic (H-2D^d, CD45.1^+) bone marrow was mixed with syngeneic C57BL/6 double congenic (H-2D^b, CD45.1^+CD45.2^+) bone marrow prior to transfer. The harvested cells were stained with anti-CD45.1-phycoerythrin, anti-CD45.2-phycoerythrin-cyanine-7, and anti-TER119-allophycocyanin monoclonal antibodies (BioLegend, San Diego, CA). TER119 was used for erythroid exclusion, prior to identification of allogeneic donor (CD45.1^+), syngeneic donor (CD45.1^+ CD45.2^+), and recipient (CD45.2^+) cells. Dead cells were excluded using 7-aminoactinomycin D. Samples were acquired with an LSR Fortessa (BD Biosciences) and analyzed using FlowJo version 9 software (BD Biosciences). Prism version 9 (GraphPad) was used to calculate CTL indices as the percentage survival of syngeneic donor cells divided by the percentage survival of allogeneic donor cells. […] In vivo perforin inhibition animal experiments were approved by the Animal Ethics Committee of the QIMR Berghofer Medical Research Institute.

[3] = tested on: recombinant perforin; design: method as in PMID 28582670, PMID 28110869; settings: lytic activity of recombinant perforin against Jurkat T leukemia cells; cited from earlier work
[4] = concentration inhibiting 90% of perforin-dependent cytotoxicity, K562 targets, effector/target 2:1, 4 h, RPMI 0.1% BSA, read-out: KHYG-1 IC90
[5] = 80 mg/kg bid (0 and 18 h), pooled with pretransplant dosing data
[6] = 120 mg/kg bid (0 and 18 h), pooled with pretransplant dosing data
[7] = 160 mg/kg bid (0 and 18 h), pooled with pretransplant dosing data
[8] = 160 mg/kg qd x 4 (0, 24, 48 h prior to and 18 h after transfer), 24 h after transplant

CN1Cc2cc(-c3ccc(-c4cncc(NS(=O)(=O)c5ccccc5[N+](=O)[O-])c4)s3)ccc2C1=O [Compound 1, N-{5-[5-(2-methyl-1-oxo-2,3-dihydro-1H-isoindol-5-yl)-2-thienyl]-3-pyridinyl}-2-nitrobenzenesulfonamide]
IC90 ([1]; KHYG-1, estimated from IC90 5.37 μM and media free fraction 0.144, read-out: unbound in vitro IC90 in KHYG-1 cells): 0.77 µM | IC90 [1, 4]: 5.37 ± 1.1 µM | % perforin inhibition, blood [2, 5]: -0.71% | % perforin inhibition, spleen [2, 5]: 7.66% | % perforin inhibition, blood ([2]; 80 mg/kg qd (one dose at 0 h)): -5.19% | % perforin inhibition, spleen ([2]; 80 mg/kg qd (one dose at 0 h)): -4.19% | % perforin inhibition, spleen ([2]; 80 mg/kg qd x 4 (0, 24, 48 h prior to and 18 h after transfer), 24 h after transplant): 7.66% and 7% | % perforin inhibition, blood ([2]; 80 mg/kg qd x 4, 24 h after transplant): 26.33% and 26% | % perforin inhibition, blood ([2]; 80 mg/kg tid (0, 9 and 18 h)): -1.34% | % perforin inhibition, spleen ([2]; 80 mg/kg tid (0, 9 and 18 h)): -1.98% | % perforin inhibition, blood [2, 6]: 43.66% | % perforin inhibition, spleen [2, 6]: 30.50% | perforin inhibition in vivo (in words) ([2]; 120 mg/kg followed by two doses of 80 mg/kg): moderate perforin inhibition | % perforin inhibition, blood ([2]; 120 mg/kg qd (one dose at 0 h)): 17.84% | % perforin inhibition, spleen ([2]; 120 mg/kg qd (one dose at 0 h)): 16.71% | % perforin inhibition, spleen ([2]; 120 mg/kg qd x 4 (0, 24, 48 h prior to and 18 h after transfer), 24 h after transplant): 39.90% and 40% | % perforin inhibition, blood ([2]; 120 mg/kg qd x 4, 24 h after transplant): 44.84% and 45% | % perforin inhibition, blood ([2]; 120 mg/kg tid (0, 9 and 18 h)): 69.14% | % perforin inhibition, spleen ([2]; 120 mg/kg tid (0, 9 and 18 h)): 40.42% | % perforin inhibition, blood [2, 7]: 56.50% | % perforin inhibition, spleen [2, 7]: 42.46% | % perforin inhibition, spleen [2, 8]: 48.20% and 48% | % perforin inhibition, blood ([2]; 160 mg/kg qd x 4, 24 h after transplant): 55.47% and 55% | % perforin inhibition, blood ([2]; 120+80+80 mg/kg tid): 34.71% | % perforin inhibition, spleen ([2]; 120+80+80 mg/kg tid): 15.22% | perforin inhibition in vivo (in words) ([2]; three doses of 80 mg/kg): ineffective | perforin inhibition in vivo (in words) ([2]; three doses of 120 mg/kg): highly active | IC50 [3]: 6.65 µM

O=C1NCc2ccc(-c3ccc(-c4cncc(NS(=O)(=O)c5ccc(F)cc5F)c4)s3)cc21 [Compound 7, 2,4-difluoro-N-{5-[5-(3-oxo-2,3-dihydro-1H-isoindol-5-yl)-2-thienyl]-3-pyridinyl}benzenesulfonamide]
IC90 [1, 4]: 28.9 ± 6.7 µM | % perforin inhibition, spleen [2, 8]: 26.55% | IC50 [3]: 4.15 µM

From article PMC9194936, “Preclinical Activity and Pharmacokinetic/Pharmacodynamic Relationship for a Series of Novel Benzenesulfonamide Perforin Inhibitors” (ACS Pharmacology & Translational Science, 2022)
